Key:
Type in all cases: in vivo
[1] = system: rats subjected to haemorrhagic shock; assay: Organ injury and dysfunction induced by trauma haemorrhage (haemorrhagic shock) in the rat; settings: for rise in serum creatinine / rise in serum urea: 4 h after resuscitation; for rise in serum creatinine / rise in serum urea / rise in serum ALT / rise in serum AST / rise in serum creatinine kinase: vs HS-rats; for decline in MAP caused by haemorrhage during the resuscitation phase: vs HS Control
Experimental: Thirty-five male Wistar rats (271±5 g) were anaesthetised with sodium thiopentone (120 mg/kg i.p., LINK Pharmaceuticals Ltd., West Sussex, UK) and anaesthesia was maintained by supplementary injections (˜10 mg/kg i.v.) of sodium thiopentone as and when required. The animals were placed onto a thermostatically controlled heating mat (Harvard Apparatus Ltd., Kent, UK) and body temperature was maintained at 37±1° C. by means of a rectal probe attached to a homeothermic blanket. A tracheotomy was performed by inserting into the lumen of the trachea a small length of polyethylene tubing [Internal Diameter (ID) 1.67 mm, Portex, Kent, UK] to maintain airway patency and facilitate spontaneous respiration. […] The right carotid artery was cannulated (ID 0.58 mm, Portex) to facilitate the withdrawal of blood using a heparinised syringe. The right jugular vein was cannulated (ID 0.40 mm, Portex) for the administration of Ringer's Lactate (RL), shed blood, test compounds and/or vehicle. The bladder was also cannulated (ID 0.76 mm, Portex) for the collection of urine. Upon completion of the surgical procedure, cardiovascular parameters were allowed to stabilise for a period of 15 min.
After the stabilisation period, blood was withdrawn via the cannula inserted in the right carotid artery in order to achieve a fall in MAP to 35±5 mmHg within 10 min. From this point onwards, MAP was maintained at 35±5 mmHg for a period of 90 min either by further withdrawal of blood during the compensation phase (MAP rises following blood withdrawal due to sympathetic response) or administration of Ringer's Lactate i.v. during the decompensation phase (animals are unable to increase and maintain high MAP). […] At 90 min after initiation of haemorrhage, resuscitation was performed with 20 ml/kg Ringer's Lactate i.v. over a period of 10 min and then half the shed blood mixed with 100 u/ml heparinised saline i.v. over a period of 50 min. At the end of 1 h resuscitation, an i.v. infusion of Ringer's Lactate (1.5 ml/kg/h) was started as fluid replacement and maintained for a further 3 h.
Four hours after the onset of resuscitation, 1.2 ml blood was collected from the right carotid artery and decanted into serum gel tubes (Sarstedt, Numbrecht, Germany), after which the heart was removed to terminate the experiment. The samples were centrifuged (9900 rpm for 3 min) to separate serum from which urea, creatinine, aspartate aminotransferase (AST), alanine aminotransferase (ALT) and creatinine kinase (CK) were measured within 24 hours (Idexx Laboratories Ltd., West Yorkshire, UK). Urine collected during the last 3 h of the experiment was analysed for creatinine levels in order to estimate creatinine clearance as an indicator of glomerular dysfunction and was calculated as follows:
[formula] 1.4 Experimental Design
Rats were randomly allocated into the following groups: • (i) Sham (n=4) • (ii) HS Control (n=10) • (iii) HS+Artesunate 1 mg/kg (n=6) • (iv) HS+Artesunate 3 mg/kg (n=7) • (v) HS+Artesunate 10 mg/kg (n=8)
Sham-operated rats underwent identical surgical procedures but without haemorrhage or resuscitation. Animals received either 10% DMSO (1 ml/kg i.v.) or artesunate (1, 3 or 10 mg/kg i.v.) on resuscitation.
All values described in the text and figures are expressed as mean±standard error of the mean (SEM) for n observations. Each data point represents biochemical measurements obtained from up to 10 separate animals. Statistical analysis was carried out using GraphPad Prism 5.03 (GraphPad Software, San Diego, Calif., USA). Data without repeated measurements was assessed by one-way ANOVA followed by Dunnett's post hoc test. Data with repeated measurements was assessed by two-way ANOVA followed by Bonferroni's post hoc test. A P value of less than 0.05 was considered to be significant.

[2] = system: rats subjected to burn injury; assay: Organ injury and dysfunction induced by burn injury in the rat; settings: 3 mg/kg i.v. 30 min prior to and 30 min after burn injury, 6 h after burn
Experimental: Twenty-two male Wistar rats (Harlan, Udine, Italy) weighing 300 to 350 g were anaesthetised with sodium pentobarbital (Eutasil™, 60 mg/kg i.p.; Sanofi Veterinária, Algés, Portugal), which was supplemented as required. Anaesthetised rats were shaved (dorsum and abdomen) and placed onto a thermostatically controlled heating mat (Harvard Apparatus Ltd, Kent, U.K.) and body temperature maintained at 37±1° C. by means of a rectal probe attached to a homeothermic blanket. A tracheotomy was performed to maintain airway patency and to facilitate spontaneous respiration. Thirty minutes prior to burn injury, rats were treated with vehicle or drug, as described in section 3.2. To induce burn injury, a 60% third degree skin burn was induced by immersing dorsal shaved skin in 99° C. water for 10 s using a synthetic foam template. The rats were then dried and placed over the heating mat. Rats were sacrificed at 6 hours after burn injury by overdose of the anaesthetic and serum samples obtained for analysis of organ injury and dysfunction. Rats were randomly allocated into the following groups: • (i) Sham (n=4) • (ii) Burn+10% DMSO (n=10) • (iii) Burn+Artesunate (n=9) Sham-operated rats underwent identical surgical procedures but without burn injury (immersed in room temperature water). Animals received either 10% DMSO (1 ml/kg i.v.) or artesunate (3 mg/kg i.v.) 30 min prior to burn injury and 30 min after burn injury Each data point represents measurements obtained from up to 10 separate animals. Data was assessed using Mann-Whitney U test.

[3] = system: rats subjected to unilateral renal ischaemia/reperfusion; assay: Late administration in a recovery rat model of unilateral renal ischaemia/reperfusion injury; settings: 0.3 mg/kg i.v. 24 h into reperfusion, measured at 48 h reperfusion, mean±SEM, P<0.05
Experimental: Thirty-one male Wistar rats (240-270 g, Charles River, Margate, U.K.) were used in this study. Rats were anaesthetised with a ketamine (100 mg/ml) and xylazine (20 mg/ml) mixture (2:1; 1.5 ml/kg, i.p.) and anaesthesia was maintained by supplementary injections (200 μg/kg i.p.) of ketamine/xylazine. Buprenorphine was administered at a dose of 0.1 mg/kg s.c. (0.5 ml/kg). Rats were then, placed onto a thermostatically controlled heating mat (Harvard Apparatus Ltd., Kent, U.K.) set at 37° C. A midline laparotomy was then performed. The anatomical right kidney was removed following permanent ligation of the renal artery and vein. The left renal pedicle (consisting of the renal artery, vein and nerve) was isolated and clamped using a non-traumatic microvascular clamp at time 0 for 30 min. Body temperature was maintained at 35±1° C. during ischaemia by means of measuring rectal temperature with a thermometer. After 30 min of unilateral renal ischaemia, the clamp was removed to allow reperfusion for 48 h. […]
Following the reperfusion period, ˜3.5 ml of blood was taken from the right ventricle of the heart via cardiac puncture into non-heparinised 5 ml syringes and immediately decanted into 1.3 ml serum gel tubes (Sarstedt, Germany). […] All biochemical markers in serum and urine were measured in a blinded fashion by a commercial veterinary testing laboratory (IDEXX Ltd, West Sussex, UK). […] Creatinine clearance is used as an indicator of glomerular dysfunction and is calculated as follows
Fractional excretion of sodium is used as an indicator of tubular dysfunction and is calculated as follows: […]
All data in the text and figures are presented as mean±SEM of n observations, where n represents the number of animals studied. All statistical analysis was calculated using GraphPad Prism 6 (GraphPad Software, San Diego, Calif., USA). Biochemical data was analysed by one-way ANOVA for data representing more than two groups, followed by a Dunnett's post hoc test for comparison of sham/treated groups with the control vehicle. […]

[4] = 1 mg/kg i.v. on resuscitation, P>0.05
[5] = 3 mg/kg i.v. on resuscitation, P<0.005
[6] = 3 mg/kg i.v. on resuscitation, P<0.05
[7] = 10 mg/kg i.v. on resuscitation, P<0.005
[8] = 10 mg/kg i.v. on resuscitation, P<0.05

## C[C@H]1[C@H](OC(=O)CCC(=O)O)O[C@@H]2O[C@@]3(C)CC[C@H]4[C@H](C)CC[C@@H]1[C@@]24OO3 [artesunate]
[1]; [4]
  rise in serum creatinine: no significant effect
  rise in serum urea: no significant effect
  decline in MAP caused by haemorrhage during the resuscitation phase: failed to attenuate
  rise in serum ALT: no significant effect
  rise in serum AST: no significant effect
  rise in serum creatinine kinase: no significant effect
[1]; [5]
  rise in serum creatinine: significantly attenuated
  rise in serum ALT: significantly attenuated
[1]; [6]
  rise in serum urea: significantly attenuated
  rise in serum AST: significantly attenuated
  rise in serum creatinine kinase: significantly attenuated
[1]; 3 mg/kg i.v. on resuscitation, P>0.05
  decline in MAP caused by haemorrhage during the resuscitation phase: failed to attenuate
[1]; [7]
  rise in serum creatinine: significantly attenuated
  rise in serum ALT: significantly attenuated
[1]; 10 mg/kg i.v. on resuscitation, P>0.05
  decline in MAP caused by haemorrhage during the resuscitation phase: failed to attenuate
[1]; [8]
  rise in serum AST: significantly attenuated
  rise in serum creatinine kinase: significantly attenuated
[2]; P>0.05
  rise in serum ALT: no significant effect
  rise in serum AST: no significant effect
[2]; vs burn + vehicle, P<0.05
  rise in serum creatinine: significantly attenuated
  rise in serum urea: significantly attenuated
[3]; IRI+Vehicle 4.45±0.65
  fractional excretion of sodium: 1.90±0.17%
[3]; IRI+Vehicle 34.13±2.23
  serum urea: 21.63 ± 1.51 mmol/L
[3]; IRI+Vehicle 205.90±22.23
  serum creatinine: 115.4 ± 9.72 µmol/L
